From publication PMC4416907, “An Unexpected Mode Of Binding Defines BMS948 as A Full Retinoic Acid Receptor β (RARβ, NR1B2) Selective Agonist” (PLoS ONE, 2015)

Legend:
human RARα1 = tested on: T1, human RARα1; test: Transient transactivation reporter assay, (RARE)3x-tk-luciferase in HeLa cells, agonist mode; format: cell-based; conditions: for agonistic activity on RARα-mediated transactivation: HeLa cells, ligand at single selective concentration, compared with 10 nM TTNPB (100%)
T1 construct: expressed in transfected cells; host or cells: HeLa
Source text: (§1) To evaluate the activity of a panel of synthetic retinoids (Fig 1) on RAR-mediated transactivation, we used HeLa cells transiently transfected with human RARα1,-β2, or—γ2 and a (RARE)3x-tk-luciferase reporter gene. Well characterized full agonist and antagonist retinoids were also used as reference compounds (S2 Fig). […] To further characterize the activation profile of BMS compounds, transfected cells were exposed to a range of ligand concentrations to establish dose-response curves.
(§2) (A to C) HeLa cells were transiently cotransfected with the reporter (RARE)3x-tk-Luc and RARα (A), RARβ (B) or RARγ (C), as indicated, to assess the RAR agonist potential of synthetic RAR ligands.
(§3) HeLa cells were cultured in DMEM with Glutamax and 10% (v/v) FCS and transfected using JetPei transfectant (Ozyme). After 24 h, the medium was changed to a medium containing the indicated ligands or vehicle. Cells were lysed and assayed for reporter expression 48 h after transfection. The luciferase assay system was used according to the manufacturer’s instruction (Promega). In each case results were normalized to coexpressed β–galactosidase. Each transfection was carried out in duplicate and repeated each three to six times.

RARγ [1] = conditions: also personal data not shown; cited from earlier work
RARβ [2] = conditions: cited from earlier work
RARβ-SMRT interaction = tested on: T2, RARβ-SMRT interaction; test: Mammalian two-hybrid assay Gal-SMRT / VP16-RARβLBD in HeLa cells; format: cell-based; conditions: BMS compounds at 1 μM, TTNPB 10 nM; 100% = absence of ligand
T2 construct: expressed in transfected cells; host or cells: HeLa
Source text: (§4) Supplementary file pone.0123195.s005.eps: S5 Fig Molecular basis of BMS641 partial activity. According to the current model of gene regulation by RARs, the agonistic property of a given retinoid depends on its ability to induce coregulator recruitment. RAR agonists dissociate corepressors (such as SMRT) and induce the recruitment coactivators (such as TIF2), resulting in transactivation. […] BMS641 was therefore categorized as a partial RARβ agonist. To further characterize the partial activity of BMS641, we used two-hybrid assays to monitor the interaction between RARβ and transcriptional coregulators in the presence of various retinoids. In these assays, a chimeric luciferase-based reporter gene ((17 m)5x-βGlob-Luc) is transfected together with two expression vectors. One expresses a fusion protein (Gal-TIF2 or Gal-SMRT) that binds through the Gal DNA binding domain (Gal) to the pentamer of the “17m” DNA recognition site in the reporter gene and contains the nuclear receptor interacting domain of the coregulator. The other vector expresses a second fusion protein composed of the VP16 acidic transcription activation domain, and the LBD of RARβ. […] Strikingly, the RARβ-SMRT interaction was maintained in the presence of BMS641, in agreement with the partial agonistic activity of this compound. […] BMS641 induces reduced coactivator recruitment, but cannot dissociate corepressors. […]

human RARβ2 = molecular target: T3, human RARβ2 (Homo sapiens, UniProt P10826); test: Transient transactivation reporter assay, (RARE)3x-tk-luciferase in HeLa cells, agonist mode; format: cell-based
T3 construct: expressed in transfected cells; host or cells: HeLa
T3 sequence (P10826 1-448 isoform P10826-2): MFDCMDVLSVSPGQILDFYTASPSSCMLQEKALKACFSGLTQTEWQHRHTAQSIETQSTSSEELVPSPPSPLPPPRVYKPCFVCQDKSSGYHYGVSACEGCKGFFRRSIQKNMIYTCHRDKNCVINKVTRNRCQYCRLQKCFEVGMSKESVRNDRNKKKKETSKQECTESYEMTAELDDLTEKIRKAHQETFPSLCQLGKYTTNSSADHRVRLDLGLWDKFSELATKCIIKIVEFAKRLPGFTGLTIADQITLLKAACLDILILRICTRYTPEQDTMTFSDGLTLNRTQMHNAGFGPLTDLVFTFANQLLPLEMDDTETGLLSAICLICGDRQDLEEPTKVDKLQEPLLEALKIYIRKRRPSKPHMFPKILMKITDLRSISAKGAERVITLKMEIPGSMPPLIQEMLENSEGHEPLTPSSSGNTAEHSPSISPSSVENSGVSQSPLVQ
Source text: as §1, §2, §3

human RARγ2 = tested on: T4, human RARγ2; test: as above; format: cell-based
T4 construct: expressed in transfected cells; host or cells: HeLa
Source text: as §1, §2, §3

RARβ-TIF2 interaction = tested on: T5, RARβ-TIF2 interaction; test: Mammalian two-hybrid assay Gal-TIF2 / VP16-RARβLBD in HeLa cells; format: cell-based; conditions: BMS compounds at 1 μM, TTNPB 10 nM
T5 construct: expressed in transfected cells; host or cells: HeLa
Source text: as §4

hRARβL298F = tested on: T6, hRARβL298F; test: Transient transactivation assay with mutant hRARβL298F in HeLa cells; format: cell-based, human
T6 construct: expressed in transfected cells; host or cells: HeLa
Experimental: The construct was verified by DNA sequencing.
as §3
(EPS) Click here for additional data file.

RARβ→γ = tested on: T7, RARβ→γ; test: Transient transactivation assay with chimeric LBP mutant RARβ→γ in HeLa cells; format: cell-based
T7 construct: expressed in transfected cells; host or cells: HeLa
Source text: (§5) Supplementary file pone.0123195.s004.eps: S4 Fig The methionine 272 of RARγ LBP is a most important discriminatory element for the RARβ-specific response to BMS948. […] To investigate the role of these residues in the RARβ–specific response to BMS948, we compared the agonistic and antagonistic potentials of this compound for RARβ and RARγ, as well as chimeric RAR mutants in which LBPs were interconverted (denoted RARβ→γ and RARγ→β). Dose-response curves were established from transient transfection in HeLa cells of these proteins and a (RARE)3x-tk-luciferase reporter gene as described in Figs 2 and 3. […] (A) HeLa cells were transiently cotransfected with the reporter (RARE)3x-tk-Luc and RARβ (open circles), RARγ (closed diamonds), RARγ→β in which the methionine residue 272 in RARγ LBP is replaced by an isoleucine residue (open squares), or RARβ→γ in which the isoleucine residue 263 in RARβ LBP is replaced by a methionine residue (closed triangles) to assess the agonist potential of BMS948. […] (B) Transient transfection assays in HeLa cells with the reporter (RARE)3x-tk-Luc and RARβ→γ as in (A) to assess the antagonist potential of BMS948 and BMS493. […] (EPS) Click here for additional data file.

RARα = molecular target: T8, RARα (Homo sapiens, UniProt P10276); test: Transient transactivation assay, antagonist mode (competition with TTNPB-induced activity); format: cell-based; conditions: reporter activated with 3 nM TTNPB (100%); retinoids at 1 μM or increasing amounts
T8 construct: expressed in transfected cells; host or cells: HeLa
T8 sequence (P10276 1-462): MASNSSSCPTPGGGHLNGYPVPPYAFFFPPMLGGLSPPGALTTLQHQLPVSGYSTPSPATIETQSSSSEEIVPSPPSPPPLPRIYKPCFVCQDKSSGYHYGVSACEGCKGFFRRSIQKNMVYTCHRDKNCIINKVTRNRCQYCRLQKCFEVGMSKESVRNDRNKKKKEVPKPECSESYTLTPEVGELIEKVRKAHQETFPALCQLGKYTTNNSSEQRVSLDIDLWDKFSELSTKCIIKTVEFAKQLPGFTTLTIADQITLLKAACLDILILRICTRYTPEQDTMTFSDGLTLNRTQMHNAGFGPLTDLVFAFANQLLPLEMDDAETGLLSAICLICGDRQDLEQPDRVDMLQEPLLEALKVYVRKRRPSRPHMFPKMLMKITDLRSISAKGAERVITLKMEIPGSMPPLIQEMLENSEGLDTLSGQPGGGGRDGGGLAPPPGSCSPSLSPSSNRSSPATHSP
Experimental: (§6) To this end, transient transactivation assays were conducted in order to assess the ability of the synthetic retinoids to affect TTNPB-induced RAR activity. […] Competition curves with increasing concentrations of BMS411 yielded an IC50 of roughly 30 nM for RARα in keeping with the high affinity of this compound for this receptor subtype (Fig 3D). […] Overall, our data lead to the general conclusion that BMS948 is a full RARβ-selective agonist.
(§7) Fig 3 BMS948 is an RARβ-selective ligands. (A to C) Transient transactivation assays as in Fig 2 to assess the antagonist potential of synthetic RAR ligands (RARα (A), RARβ (B) or RARγ (C)).
as §3

RARγ→β = tested on: T9, RARγ→β; test: Transient transactivation assay with chimeric LBP mutant RARγ→β in HeLa cells; format: cell-based; conditions: 10^–9 to 10^–6 M; 100% = TTNPB at 10nM
T9 construct: expressed in transfected cells; host or cells: HeLa
Source text: as §5

RARβ [3] = tested on: T10, RARβ; test: Transient transactivation assay, antagonist mode (competition with TTNPB-induced activity); format: cell-based, human; conditions: reporter activated with 3 nM TTNPB (100%); retinoids at 1 μM or increasing amounts
T10 construct: expressed in transfected cells; host or cells: HeLa
Experimental: as §6, §7, §3

RARγ [4] = tested on: T11, RARγ; test: as above; format: cell-based, human; conditions: reporter activated with 3 nM TTNPB (100%); retinoids at 1 μM or increasing amounts
T11 construct: expressed in transfected cells; host or cells: HeLa
Experimental: as §6, §7, §3

[5] = 10^–10 to 10^–6 M, only at the highest ligand concentration used (1 μM)

SMILES: CC1(C)CCC(C)(C)c2cc(C(=O)Nc3ccc(C(=O)O)cc3)ccc21 [Am580, reference compound]
- agonistic activity on RARα-mediated transactivation (human RARα1): full agonistic activity

SMILES: CN1c2cc3c(cc2N=C(c2ccc(C(=O)O)cc2)c2ccccc21)C(C)(C)CCC3(C)C [LE135]
- reported activity on RARγ (RARγ [1]): some RARγ partial agonistic activity
- reported activity on RARβ (RARβ [2]): antagonist showing some selectivity for RARβ

SMILES: O=C(O)c1ccc(NC(=O)c2ccc3cccc(-c4ccccc4)c3c2)cc1 [BMS948]
- RARβ-SMRT interaction (corepressor binding) (RARβ-SMRT interaction): decreased
- EC50 (human RARβ2; dose-response 10^–10 to 10^–6 M, read-out: EC50 transactivation for RARβ): ~100 nM
- agonistic activity on RARβ-mediated transactivation (human RARβ2; ligand at single selective concentration, compared with 10 nM TTNPB (100%)): full RARβ-agonist
- activation of RARα in dose-response curves (human RARα1; [5]): very weakly
- agonistic activity on RARα-mediated transactivation (human RARα1): very weak activity
- activation of RARγ in dose-response curves (human RARγ2; [5]): very weakly
- agonistic activity on RARγ-mediated transactivation (human RARγ2; HeLa cells, ligand at single selective concentration, compared with 10 nM TTNPB (100%)): very weak activity
- RARβ-TIF2 interaction (coactivator recruitment) (RARβ-TIF2 interaction): optimal
- efficacy on RARβL298F in dose-response curves (hRARβL298F; S6 Fig, increasing concentrations): 70%
- transcriptional activity on RARβL298F as compared to TTNPB (hRARβL298F; retinoids at 0.1 μM, 10 nM TTNPB = 100% with wild-type hRARβ): 50–60%
- antagonist potential on RARβ→γ (RARβ→γ; 3 nM TTNPB (100%) plus compound at 1 μM): did not reduce TTNPB-induced activity
- agonist potential on RARβ→γ (RARβ→γ; 10^–9 to 10^–6 M, 100% = TTNPB at 10nM, only at high concentration): very weak activation
- antagonistic activity on TTNPB-induced RARα transactivation (RARα): very weak
- agonist potential on RARγ→β (RARγ→β): potent full agonist
- antagonistic activity on TTNPB-induced RARβ transactivation (RARβ [3]): no
- antagonistic activity on TTNPB-induced RARγ transactivation (RARγ [4]): very weak
